Test results from PubChem BioAssay (NCI).
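Protocol summary: plate cells (96-well), add compound at 5 concentrations, incubate 48 h, interpolate endpoints linearly. GI50 is the concentration that inhibits growth by half. TGI: total growth inhibition.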

Assays:
Test in all cases: NCI tumour cell line growth inhibition, 48 h
T-47D breast = system: T-47D breast
RPMI-8226 leukemia = system: RPMI-8226 leukemia
MDA-MB-231 breast = system: MDA-MB-231 breast
MCF7 breast = system: MCF7 breast
EKVX NSCLC = system: EKVX NSCLC
786-0 renal = system: 786-0 renal
TK-10 renal = system: TK-10 renal
PC-3 prostate = system: PC-3 prostate
MALME-3M melanoma = system: MALME-3M melanoma
MOLT-4 leukemia = system: MOLT-4 leukemia
SK-MEL-5 melanoma = system: SK-MEL-5 melanoma
SR leukemia = system: SR leukemia
SK-MEL-28 melanoma = system: SK-MEL-28 melanoma
NCI-H23 lung = system: NCI-H23 lung
CAKI-1 renal = system: CAKI-1 renal
M14 melanoma = system: M14 melanoma
HCT-15 colon = system: HCT-15 colon
OVCAR-8 ovarian = system: OVCAR-8 ovarian
KM12 colon = system: KM12 colon
HCC-2998 colon = system: HCC-2998 colon
SN12C renal = system: SN12C renal
SF-295 CNS = system: SF-295 CNS
SK-OV-3 ovarian = system: SK-OV-3 ovarian
IGROV1 ovarian = system: IGROV1 ovarian
SF-268 CNS = system: SF-268 CNS
SW-620 colon = system: SW-620 colon
HOP-62 NSCLC = system: HOP-62 NSCLC
MDA-N = system: MDA-N
SNB-75 CNS = system: SNB-75 CNS
UACC-62 melanoma = system: UACC-62 melanoma
RXF 393 renal = system: RXF 393 renal
CCRF-CEM leukemia = system: CCRF-CEM leukemia
A549 NSCLC = system: A549 NSCLC
SNB-19 CNS = system: SNB-19 CNS
UO-31 renal = system: UO-31 renal
BT-549 breast = system: BT-549 breast
SF-539 CNS = system: SF-539 CNS
OVCAR-3 ovarian = system: OVCAR-3 ovarian
MDA-MB-435 = system: MDA-MB-435
K-562 leukemia = system: K-562 leukemia
HL-60(TB) leukemia = system: HL-60(TB) leukemia
NCI-H226 lung = system: NCI-H226 lung
NCI/ADR-RES ovarian = system: NCI/ADR-RES ovarian
LOX IMVI melanoma = system: LOX IMVI melanoma
NCI-H522 lung = system: NCI-H522 lung
OVCAR-5 ovarian = system: OVCAR-5 ovarian
ACHN renal = system: ACHN renal
HS 578T breast = system: HS 578T breast
NCI-H460 lung = system: NCI-H460 lung
HT29 colon = system: HT29 colon
COLO 205 colon = system: COLO 205 colon
OVCAR-4 ovarian = system: OVCAR-4 ovarian
UACC-257 melanoma = system: UACC-257 melanoma
HCT-116 colon = system: HCT-116 colon
U251 CNS = system: U251 CNS
DU-145 prostate = system: DU-145 prostate
HOP-92 NSCLC = system: HOP-92 NSCLC
A498 renal = system: A498 renal
SK-MEL-2 melanoma = system: SK-MEL-2 melanoma

SMILES: CC1OC(c2ccccc2)=CC(OCc2ccccc2)[C@H]1OCc1ccccc1 (some centres undefined)
- TGI (T-47D breast): > 10 µM
- TGI (RPMI-8226 leukemia): > 10 µM
- TGI (MDA-MB-231 breast): > 10 µM
- TGI (MCF7 breast): > 10 µM
- TGI (EKVX NSCLC): > 10 µM
- TGI (786-0 renal): > 10 µM
- TGI (TK-10 renal): > 10 µM
- TGI (PC-3 prostate): > 10 µM
- TGI (MALME-3M melanoma): > 10 µM
- TGI (MOLT-4 leukemia): > 10 µM
- TGI (SK-MEL-5 melanoma): > 10 µM
- TGI (SR leukemia): > 10 µM
- TGI (SK-MEL-28 melanoma): > 10 µM
- TGI (NCI-H23 lung): > 10 µM
- TGI (CAKI-1 renal): > 10 µM
- TGI (M14 melanoma): > 10 µM
- TGI (HCT-15 colon): > 10 µM
- TGI (OVCAR-8 ovarian): > 10 µM
- TGI (KM12 colon): > 10 µM
- TGI (HCC-2998 colon): > 10 µM
- TGI (SN12C renal): > 10 µM
- TGI (SF-295 CNS): > 10 µM
- TGI (SK-OV-3 ovarian): > 10 µM
- TGI (IGROV1 ovarian): > 10 µM
- TGI (SF-268 CNS): > 10 µM
- TGI (SW-620 colon): > 10 µM
- TGI (HOP-62 NSCLC): > 10 µM
- TGI (MDA-N): > 10 µM
- TGI (SNB-75 CNS): > 10 µM
- TGI (UACC-62 melanoma): > 10 µM
- TGI (RXF 393 renal): > 10 µM
- TGI (CCRF-CEM leukemia): > 10 µM
- TGI (A549 NSCLC): > 10 µM

SMILES: C=C[C@]1(C)C=C2C(=O)[C@@]3(O)OC[C@@]4(CCCC(C)(C)C43O)C2(O)C(O)C1 (some centres undefined)
- GI50 (SNB-19 CNS): 23.3 µM
- TGI (SNB-19 CNS): > 69 µM
- GI50 (UO-31 renal): 1.34 µM
- TGI (UO-31 renal): 3 µM
- GI50 (BT-549 breast): 3.47 µM
- TGI (BT-549 breast): 13.2 µM
- GI50 (T-47D breast): 0.759 µM
- TGI (T-47D breast): 2.43 µM
- GI50 (SF-539 CNS): 5.15 µM
- TGI (SF-539 CNS): 15.4 µM
- GI50 (RPMI-8226 leukemia): 21 µM
- TGI (RPMI-8226 leukemia): > 100 µM
- GI50 (MDA-MB-231 breast): 13.3 µM
- TGI (MDA-MB-231 breast): 27.3 µM
- GI50 (OVCAR-3 ovarian): 2.52 µM
- TGI (OVCAR-3 ovarian): 5.9 µM
- GI50 (MDA-MB-435): 3.95 µM
- TGI (MDA-MB-435): 14.9 µM
- GI50 (K-562 leukemia): 2.8 µM
- TGI (K-562 leukemia): > 27.9 µM
- GI50 (HL-60(TB) leukemia): 3.41 µM
- TGI (HL-60(TB) leukemia): 13 µM
- GI50 (MCF7 breast): 3.39 µM
- TGI (MCF7 breast): 15.3 µM
- GI50 (NCI-H226 lung): 5.43 µM
- TGI (NCI-H226 lung): 12.1 µM
- GI50 (EKVX NSCLC): 15 µM
- TGI (EKVX NSCLC): 31.3 µM
- GI50 (786-0 renal): 2.21 µM
- TGI (786-0 renal): 5.51 µM
- GI50 (TK-10 renal): 1.56 µM
- TGI (TK-10 renal): 3.03 µM
- GI50 (PC-3 prostate): 14.9 µM
- TGI (PC-3 prostate): 32.7 µM
- GI50 (NCI/ADR-RES ovarian): 2.33 µM
- TGI (NCI/ADR-RES ovarian): 6.62 µM
- GI50 (MALME-3M melanoma): 1.36 µM
- TGI (MALME-3M melanoma): 3.02 µM
- GI50 (MOLT-4 leukemia): 3.09 µM
- TGI (MOLT-4 leukemia): 15.2 µM
- GI50 (LOX IMVI melanoma): 1.96 µM
- TGI (LOX IMVI melanoma): 6.48 µM
- GI50 (NCI-H522 lung): 0.631 µM
- TGI (NCI-H522 lung): 2.84 µM
- GI50 (OVCAR-5 ovarian): 12.1 µM
- TGI (OVCAR-5 ovarian): 25.9 µM
- GI50 (ACHN renal): 1.54 µM
- TGI (ACHN renal): 3.1 µM
- GI50 (SK-MEL-5 melanoma): 14.5 µM
- TGI (SK-MEL-5 melanoma): 27.8 µM
- GI50 (SR leukemia): 1.97 µM
- TGI (SR leukemia): 24.9 µM
- GI50 (SK-MEL-28 melanoma): 4.26 µM
- TGI (SK-MEL-28 melanoma): 15.6 µM
- GI50 (NCI-H23 lung): 2.71 µM
- TGI (NCI-H23 lung): 8.51 µM
- GI50 (HS 578T breast): 5.13 µM
- TGI (HS 578T breast): 22.2 µM
- GI50 (CAKI-1 renal): 2.38 µM
- TGI (CAKI-1 renal): 7.71 µM
- GI50 (M14 melanoma): 1.55 µM
- TGI (M14 melanoma): 3.01 µM
- GI50 (NCI-H460 lung): 12.5 µM
- TGI (NCI-H460 lung): 28.2 µM
- GI50 (HT29 colon): 1.46 µM
- TGI (HT29 colon): > 21.5 µM
- GI50 (HCT-15 colon): 3.04 µM
- TGI (HCT-15 colon): 9.21 µM
- GI50 (COLO 205 colon): 1.54 µM
- TGI (COLO 205 colon): 3.08 µM
- GI50 (OVCAR-4 ovarian): 2.32 µM
- TGI (OVCAR-4 ovarian): 5.47 µM
- GI50 (OVCAR-8 ovarian): 4.03 µM
- TGI (OVCAR-8 ovarian): 15 µM
- GI50 (UACC-257 melanoma): 2.06 µM
- TGI (UACC-257 melanoma): 4.21 µM
- GI50 (HCT-116 colon): 1.18 µM
- TGI (HCT-116 colon): 2.46 µM
- GI50 (KM12 colon): 13.1 µM
- TGI (KM12 colon): 26.8 µM
- GI50 (U251 CNS): 13.6 µM
- TGI (U251 CNS): 28.1 µM
- GI50 (DU-145 prostate): 3.03 µM
- TGI (DU-145 prostate): 11.6 µM
- GI50 (HCC-2998 colon): 17.2 µM
- TGI (HCC-2998 colon): 31.5 µM
- GI50 (SN12C renal): 8.4 µM
- TGI (SN12C renal): 23.2 µM
- GI50 (SF-295 CNS): 21.6 µM
- TGI (SF-295 CNS): > 70.5 µM
- GI50 (SK-OV-3 ovarian): 23 µM
- TGI (SK-OV-3 ovarian): 69.6 µM
- GI50 (IGROV1 ovarian): 1.55 µM
- TGI (IGROV1 ovarian): 6.36 µM
- GI50 (SF-268 CNS): 11.3 µM
- TGI (SF-268 CNS): 23.9 µM
- GI50 (SW-620 colon): 0.827 µM
- TGI (SW-620 colon): 2.31 µM
- GI50 (HOP-62 NSCLC): 11.4 µM
- TGI (HOP-62 NSCLC): 24.7 µM
- GI50 (SNB-75 CNS): 3.51 µM
- TGI (SNB-75 CNS): 14 µM
- GI50 (HOP-92 NSCLC): 5.13 µM
- TGI (HOP-92 NSCLC): 18.5 µM
- GI50 (UACC-62 melanoma): 7.77 µM
- TGI (UACC-62 melanoma): 21.5 µM
- GI50 (RXF 393 renal): 1.62 µM
- TGI (RXF 393 renal): 3.48 µM
- GI50 (A498 renal): 12.8 µM
- TGI (A498 renal): 25.6 µM
- GI50 (SK-MEL-2 melanoma): 12.4 µM
- TGI (SK-MEL-2 melanoma): 27.4 µM
- GI50 (CCRF-CEM leukemia): 1.83 µM
- TGI (CCRF-CEM leukemia): 16.5 µM
- GI50 (A549 NSCLC): 14.5 µM
- TGI (A549 NSCLC): 30.8 µM
